Test results taken from patent publication US9844224B2, “Bitter alkaloid containing consumables comprising bitter blockers” (GIVAUDAN SA, priority 2008, dated 2017).

Assays:
[1] = tested on: alkaloid bitterness in cocoa; experiment: Tasting panel, sample vs control: reduction of alkaloid bitterness in cocoa; format: in vivo, human; conditions: 10% unsweetened cocoa powder in water; for bitterness of sample compared to control: room temperature
Protocol: (§1) All concentrations in % are % (wt/wt), unless otherwise indicated. A tasting panel of 5 to 8 panelists was asked to compare the bitterness of two samples (sample with trilobatin and control without) of various caffeine-containing consumables.
(§2) Different concentrations/ranges were tested, with the ones indicated being the ones with a clear bitter masking effect. While higher concentrations reach a bitter masking effect, panelists found a negative impact on the overall flavor profile at higher concentrations.
A tasting panel of 5 to 8 panelists was asked to compare and record the sensory attribute differences between two samples (sample with trilobatin and control without).
The control and sample contained 10% unsweetened cocoa powder in water (Dutch processed dark cocoa powder, commercially available from Hersheys), the sample additionally contained 0.0005% trilobatin.
The samples were served at room temperature.
A tasting panel of 5 to 8 panelists was asked to compare and record the sensory attribute differences between two samples (sample with HDG and control without).
The control and sample contained 10% unsweetened cocoa powder in water (Dutch processed dark cocoa powder, commercially available from Hersheys), the sample additionally contained 0.0020% (w/w) HDG.

[2] = tested on: naringin and limonin bitterness; conditions: cited from earlier work
[3] = tested on: sweet sensitive panelists; experiment: Ranking with R-index analysis: isointensity of HDG to sucrose; format: in vivo, human
Protocol: (§3) All examples were performed with sweet sensitive panelists able to detect at least 0.5% of sucrose or less, unless stated otherwise. The concentration detectable by the average consumer will be higher. The results were obtained using 20 panelists in two replications.
The sucrose concentration that tastes isointense in sweetness to HDG was determined using samples of 15 ppm and 20 ppm, each of which was directly compared to a sucrose sample (sucrose solutions of 0.5%, 1%, 1.5% and 2% concentration). Fifteen milliliters of each blinded sample was presented, at room temperature, in random order to 20 sweet sensitive panelists. In two replications (over 1 session), panelists were asked to rank the solutions, from least sweet to most sweet. The data was subjected to an R-index analysis.

[4] = tested on: sweet sensitive panelists; experiment: Small panel ranking of HDG in water against sucrose solutions; format: in vivo, human
Protocol: as §3
Further three small panel testings were performed. HDG samples were prepared in concentrations of 5 ppm, 10 ppm, 15 ppm, and 20 ppm in water. All the samples were coded (presented blind) and given to the panel in random order. The panel was also presented with sucrose solutions for comparison The panel was asked to taste each sample and rank the samples from the least sweet to most sweet.

caffeine bitterness = experiment: Tasting panel, sample vs control: reduction of caffeine bitterness in water; format: in vivo, human; conditions: 200 ppm caffeine in water
Protocol: as §1, §2
The control and sample contained 0.02 or 200 ppm % caffeine in water, the sample additionally contained 0.000125 to 0.0020 trilobatin.

[5] = tested on: sweet sensitive panelists; experiment: Ranking method with R-index: isointensity of trilobatin in water to sucrose; format: in vivo, human
Protocol: (§4) The sweetness detection threshold of trilobatin was determined as detailed below in 1a, 1b and 1c. All examples were performed with sweet sensitive panelists able to detect at least 0.5% of sucrose or less, unless stated otherwise. The concentration detectable by the average consumer will be higher.
The sensory evaluation was conducted using a ranking method. Samples at ambient temperature were randomly presented in 15 ml blind aliquots (unidentifiable by panelists). Panels consisted of 15 sweet sensitive subjects and samples were presented in 2 replications over 1 session. After tasting each sample, the mouth was rinsed thoroughly with water at ambient temperature prior to tasting the next sample.
Panelists were presented with 0.5%, 1%, 1.5% and 2% sucrose solutions in water and a fifth sample of 100 ppm trilobatin in water. Subjects were asked to rank the samples from low to high with respect to perceived sweet taste. R-indices were calculated for 100 ppm trilobatin versus either 0.5%, 1%, 1.5% or 2% sucrose.
The sensory evaluation was conducted using the method described in example 1b. The panels consisted of 7 sweet sensitive panelists. Panelists were presented with 0.5%, 1%, and 1.5% sucrose solutions in water and a fourth sample of 200 ppm trilobatin in water. Panelists were asked to rank the samples from low to high with respect to perceived sweet taste.

[6] = tested on: alkaloid caffeine bitterness in instant coffee; experiment: Tasting panel, sample vs control: reduction of alkaloid bitterness in coffee; format: in vivo, human; conditions: instant coffee in water
Protocol: as §1, §2
The sample and control were instant coffee (Nescafe, Taster's choice) in water, the sample additionally contained 0.001% (10 ppm) trilobatin. All samples/controls were presented warm to the panelists.

[7] = tested on: panelist trained for sweetness detection; experiment: Paired comparison of trilobatin in water versus sucrose solutions (sweetness); format: in vivo, human
Protocol: as §4
Trilobatin (20 ppm, 60 ppm, 100 ppm) in water samples were evaluated for isointensity to sucrose solutions in a concentration of 0, 0.5 and 1% sucrose using a paired comparison method. Samples were paired and tasted left to right with rinsing (water) in between, by one panelist trained for sweetness detection.
The trilobatin samples were compared to either 0%, 0.5%, or 1% sucrose solutions.

[8] = tested on: tannin-derived bitterness (tannic acid); experiment: Tasting panel, sample vs control: tannin bitterness in water; format: in vivo, human; conditions: 0.05%/500 ppm tannic acid in water; 0.000125 to 0.002% trilobatin
Description: as §1
The control and sample contained 0.05%/500 ppm tannic acid in water. The samples additionally contained 0.000125 to 0.002% trilobatin.

[9] = tested on: alkaloid bitterness in brewed black tea; experiment: Tasting panel, sample vs control: reduction of alkaloid bitterness in tea; format: in vivo, human; conditions: 0.001% trilobatin, warm, most panelists
Protocol: as §1, §2
Sample and control were brewed black tea (tea bags, Lipton), the sample additionally contained 0.001% trilobatin which was added to the brewed tea.
Samples and controls were served warm.

[10] = tested on: alkaloid bitterness in caffeine containing energy drinks; experiment: Tasting panel, sample vs control: reduction of alkaloid bitterness in an energy drink; format: in vivo, human; conditions: Redbull and Xenergy energy drinks, 0.0005% trilobatin
Protocol: as §1, §2
The control and sample were caffeine containing energy drinks, the sample additionally contained 0.0005% trilobatin.
The tested caffeine containing energy drinks were sucrose-sweetened glucoronlactone and taurin containing Redbull™ energy drink, and Xenergy™ (Zyions Inc., USA) which is sucralose/Acesulfame-K sweetened and contains vitamin B, calcium, taurine and glucoronlactone.

SMILES: COc1ccc(CCC(=O)c2c(O)cc(O[C@@H]3O[C@H](CO)[C@@H](O)[C@H](O)[C@H]3O)cc2O)cc1O [HDG, 1-[4-(beta-D-glucopyranosyloxy)-2,6-dihydroxyphenyl]-3-(3-hydroxy-4-methoxyphenyl)-1-propanone]
- bitter aftertaste ([1]; 0.0020% (w/w) HDG): bitter aftertaste that remained
- cocoa aroma ([1]; 0.0020% (w/w) HDG): keep their cocoa aroma
- purine alkaloid bitterness (theobromine, caffeine) in the middle ([1]; 0.0020% (w/w) HDG): reduced
- bitterness of sample compared to control ([1]; 0.0020% (w/w) HDG): less bitter
- suppression of naringin and limonin bitterness ([2]; concentrations at or below the sweet taste detection threshold of HDG): not
- naringin and limonin bitterness ([2]; high suprathreshold concentration (ratio taste units sweetener to bitter compound at least 2:1)): suppress
- sample sweetness (HDG, 15 ppm) ([3]; vs 0.5% sucrose): sweeter
- sample sweetness (HDG, 20 ppm) ([3]; vs 0.5% sucrose): Sweeter
- sample sweetness (HDG, 15 ppm) ([3]; vs 1.0% sucrose): less sweet
- sample sweetness (HDG, 20 ppm) ([3]; vs 1.0% sucrose): Isosweet
- sample sweetness (HDG, 15 ppm) ([3]; vs 1.5% sucrose): less sweet
- sample sweetness (HDG, 20 ppm) ([3]; vs 1.5% sucrose): Less sweet
- sample sweetness (HDG, 15 ppm) ([3]; vs 2.0% sucrose): less sweet
- sample sweetness (HDG, 20 ppm) ([3]; vs 2.0% sucrose): Less sweet
- Rank and taste ([4]; 5 ppm HDG in water): 1 - not sweet
- Isointensity to sucrose ([4]; 10 ppm HDG in water): 0.5 % sucrose
- Rank and taste ([4]; 10 ppm HDG in water): 2 - very slightly sweet
- Isointensity to sucrose ([4]; 15 ppm HDG in water): 0.75% sucrose
- Rank and taste ([4]; 15 ppm HDG in water): 3 - slightly sweet
- Rank and taste ([4]; 20 ppm HDG in water): 4 - sweet
- sweetness threshold detected by sweet sensitive individuals ([4]; HDG in water): about 10 ppm
- sweet taste detection threshold relative to that of trilobatin ([4]; in vivo): about 10 times less

SMILES: O=C(CCc1ccc(O)cc1)c1c(O)cc(O[C@@H]2O[C@H](CO)[C@@H](O)[C@H](O)[C@H]2O)cc1O [trilobatin, 1-[4-(beta-D-glucopyranosyloxy)-2,6-dihydroxyphenyl]-3-(4-hydroxyphenyl)-1-propanone]
- alkaloid bitterness in the middle and towards the end of the temporal bitterness profile ([1]; 0.0005% trilobatin): markedly reduced
- bitter aftertaste ([1]; 0.0005% trilobatin): no bitter aftertaste
- cocoa aroma ([1]; 0.0005% trilobatin): keep their cocoa aroma
- bitterness of sample compared to control ([1]; 0.0005% trilobatin): less bitter
- caffeine bitterness reduced compared to the control (caffeine bitterness; 0.000125% (1.25 ppm) trilobatin): not
- caffeine bitterness compared to the control (caffeine bitterness; 0.0005% (5 ppm) up to 0.0020 (20 ppm) trilobatin): reduced
- sample sweetness (trilobatin, 100 ppm) ([5]; vs 0.5% sucrose): Isosweet
- sample sweetness (trilobatin, 100 ppm) ([5]; vs 1.0% sucrose): Less sweet
- sample sweetness (trilobatin, 100 ppm) ([5]; vs 1.5% sucrose): Less sweet
- sample sweetness (trilobatin, 100 ppm) ([5]; vs 2.0% sucrose): Less sweet
- concentration at which suppression of coffee flavor starts [6]: about 20 ppm
- concentration at which the coffee flavor is significantly affected [6]: ≥ 50 ppm
- alkaloid caffeine bitterness in the middle and towards the end of the temporal bitterness profile ([6]; 0.001% (10 ppm) trilobatin): markedly reduced
- bitter aftertaste ([6]; 0.001% (10 ppm) trilobatin): no bitter aftertaste
- bitterness of sample compared to control ([6]; 0.001% (10 ppm) trilobatin, warm): less bitter
- Taste of trilobatin samples compared to sucrose ([7]; 20 ppm trilobatin in water vs 0% sucrose): isosweet
- Taste of trilobatin samples compared to sucrose ([7]; 20 ppm trilobatin in water vs 0.5% sucrose): notably less sweet
- Taste of trilobatin samples compared to sucrose ([7]; 60 ppm trilobatin in water vs 0% sucrose): weakly sweeter
- Taste of trilobatin samples compared to sucrose ([7]; 60 ppm trilobatin in water vs 0.5% sucrose): less sweet
- Taste of trilobatin samples compared to sucrose ([7]; 100 ppm trilobatin in water vs 0% sucrose): sweeter
- Taste of trilobatin samples compared to sucrose ([7]; 100 ppm trilobatin in water vs 0.5% sucrose): isosweet
- Taste of trilobatin samples compared to sucrose ([7]; 100 ppm trilobatin in water vs 1% sucrose): less sweet
- bitterness of samples and control [8]: similarly bitter
- bitterness of sample compared to control [9]: slightly less bitter
- bitter aftertaste [10]: slight bitter aftertaste remains
- bitterness in the middle of the temporal pattern [10]: very effectively blocked
- bitterness of sample compared to control [10]: less bitter
